Measurements taken from patent US12486401B2, “‘Smart’ hydrogel for the radiosensitization and sustained delivery of therapeutics triggered by irradiation” (The Trustees of the University of Pennsylvania, priority 2019, dated 2025).

Legend:
[1] = tested on: U251 DR5-Luc cells; assay: Cell based high throughput death receptor screen (DR5-Luc reporter bioluminescence); conditions: compound at 100 nM, 24 h; positive control Tunicamycin 100 nM
Description: High throughput screening (HTS) was performed by the HTS core at the University of Pennsylvania. U251 DR5-Luc cells were plated at 2.0×10^3 cells/well across ten 384 well plates. Plates were then incubated in a humidified environment at 37° C. and 5% CO2 for twenty-four hours. Compound from the Selleckchem Bioactive Compound Library I was added to each well at 100 nM (approximately 3200 compounds). Tunicamycin (100 nM) and DMSO (0.1% v/v) served a positive and negative plate controls. Brite-Lite (PerkinElmer, Waltham, MA) reagent was added all plates twenty-four hours following the addition of compound, and plates were assayed on Envision Xcite (PerkinElmer) plate reader. The mean (μ) and standard deviation (σ) for each plate was used to transform total flux for each compound (xi) into z-scores using the formula z=(xi−μ/σ). Calculation of Z-prime for this screening assay was based upon the formula set forth by Zhang et al utilizing Tunicamycin and DMSO as a positive and negative controls respectively. Positive hits were identified as compounds that produced z-prime values greater than Tunicamycin. Reporter activity was validated following compound incubation and bioluminescence imaging on the IVIS spectrum (PerkinElmer).

[2] = tested on: NS039; assay: Compound dilution studies and cell viability (Cell Titer Glo); format: cell-based, human; conditions: for IC50: NS039, 72 h
Description: (§1) Cells were plated at density of 7.5-1.0×10^4 cells/well in 96 well plates using their respective media. Plates were then incubated in a humidified environment at 37° C. and 5% CO2 for twenty-four hours. An eleven-point dilution series of positive hits from our HTS screen was added to each plate. Cells treated with 0.1% DMSO served as a vehicle control. Plates were incubated with compound for seventy-two hours at 37° C. and 5% CO2, followed by addition of Cell Titer Glo® (Promega). Bio-luminescent readings were obtained using a Synergy HT luminometer (BioTek, Winooski, VT). Raw bio-luminescent values were normalized to their vehicle treated controls, and then fit to a modified Hill Equation using OriginPro 8 (OriginLab, Northampton, MA) in order to calculate IC50 values. All dilution series experiments were performed as biological triplicates.

[3] = tested on: T4213; assay: as above; format: cell-based; conditions: for IC50: T4213, 72 h
Description: as §1

[4] = Cargo loading efficiency of Se-PCPP hydrogel (UV-Vis / ICP-OES); format: physicochemical; conditions: UV-vis spectroscopy
Description: Se-PCPP hydrogel: A mixture of 1 mL PCPP (4 mg·mL^−1, PBS) and 10.3 mg Na2HPO4 were mixed together and pH was adjusted to 7.4 by addition of HCl (1 M). Next, 1.4 μL of selenocystamine dihydrochloride (110 mg·mL^−1, PBS) were added to the mixture and vortexed for 30 seconds. The mixture was dropping into 10 mL of a CaCl2 (8.8%, DI H2O) and left to react under vigorous stirring for 20 minutes at room temperature. Finally, the solution was transferred to conical tubes and centrifuged at 2 k rpm for 8 min. The supernatant was discarded, and the pellet was re-suspended in DI water. After repeating this process three times, the Se-PCPP solution was re-suspended in DI water, vortexed at 14 k rpm and stored at 4° C. The final concentration of […] in the sample was determined using ICP-OES performed on a Spectro Genesis ICP.
Cargo loaded Se-PCPP hydrogel: For the cargo loaded Se-PCPP hydrogel, the PCPP (4 mg/mL, PBS) solution was mixed with the desired amount of cargo (solutions of doxorubicin, FITC-BSA or quisinostat at 1 mg/mL) and 10.3 mg Na2HPO4. The total volume was completed to 2 mL with PBS, pH was adjusted to 7.4 by addition of HCl (1 M) and incubated for 10 minutes before cross-linking with selenocystamine dihydrochloride as described above. The final drug concentration in the sample were determined using UV-Vis spectroscopy by determining the loading efficiency (LE), calculated as follows: % LE=([stock drug]−[non-loaded drug]/[stock drug])*100.

[5] = Hydrogel degradation and cargo release after X-ray irradiation; format: physicochemical
Description: X-ray irradiation The radiation dose delivered to the sample is quantified in gray (Gy) with the relation of 1 Gy=1 J/kg. The X-ray irradiation was performed on an X-RAD 320ix irradiator (PXi, North Branford, CT) operated at 320 kV, 12.5 mA, focal spot of 8 mm^2 and with an aluminum filter of 2 mm delivering a dosage rate of 2.65 Gy/minute. In brief, the Se-PCPP hydrogel was sampled into 1 mL tube and placed in the irradiator chamber for the desired time depending onto the X-ray dose to be delivered.
Se-PCPP hydrogel ([Au]=0.2 mg/mL) was suspended into 1 mL of freshly prepared PBS/10 FBS in micro-centrifuge tubes and centrifuged at 4 k rpm for 8 minutes. Samples were irradiated with the desired X-ray dose and incubated at 37° C. for the overall experiment time. At the desired time point, samples were vortexed, centrifuged at 4000 rpm for 8 minutes and the supernatant was gently collected for quantification of the released cargo by ICP-OES or UV-vis spectroscopy. 1 mL of freshly prepared incubation medium was rapidly added to each sample, all were incubated at 37° C. until the next time point.

[6] = tested on: CHOP and DR5; assay: Western blot analysis of CHOP and DR5; format: cell-based
Description: Western blot analysis was performed using standard techniques as understood in the art, including those described at least by S. Sheikh et. al., Mol. Cancer Res. 2019, 17 (5), 1102-1114.

[7] = tested on: T4213 and NS039 cells; assay: Sphere formation assay; format: cell-based; conditions: 1.0 μM
Description: T4213 and NS039 cells were plated at 2000 cells/well in six well plates in the presence of 0.1% DMSO or 1.0 μM Quisinostat in biological triplicate for twelve days. On day twelve, individual wells were imaged on a Lionheart Fx microscope at 4× magnification following addition of NucBlue™ (Hoechst 33342, Invitrogen). Circular blue objects greater than 50 μm in diameter and less than […] were counted as neurospheres. Differences in sphere formation between cells and treatments were assessed using a one-way ANOVA followed by post-hoc Tukey's test in GraphPad Prism 8. P-values less than 0.05 were considered significant.

[8] = tested on: Patient-derived glioblastoma organoids (GBOs); assay: Brain tumor organoids, compound incubation, viability and immunofluorescence; format: cell-based, human; conditions: 1.0 μM
Description: Glioblastoma organoids (GBOs) were generated from primary brain tumor as previously described.3 Briefly, primary brain tumor specimens were minced into approximately 1 mm pieces following clinical confirmation of pathologic diagnosis and incubated in GBO medium containing 50% DMEM:F12 (Thermo Fisher Scientific), 50% Neurobasal (Thermo Fisher Scientific), 1× GlutaMax (Thermo Fisher Scientific), 1× NEAAs (Thermo Fisher Scientific), 1× PenStrep (Thermo Fisher Scientific), 1× N2 supplement (Thermo Fisher Scientific), 1× B27 w/o vitamin A supplement (Thermo Fisher Scientific), 1× 2-mercaptoethanol (Thermo Fisher Scientific), and […] human insulin (Sigma) per well and placed on an orbital shaker rotating at 120 rpm within a 37° C., 5% CO2, and 90% humidity sterile incubator. Organoids would generally form 2-4 weeks following initial culturing. Organoids were then incubated in GBO containing media containing either DMSO (0.1%) or 1.0 μM quisinostat with media changes every two days for seven days total. Post-treatment images were taken on brightfield microscope and samples were subsequently fixed in 4% paraformaldehyde×30 minutes for immunofluorescence analysis.
Serial tissue sections (20 μm) were sliced using a cryostat (Leica, CM3050S), and melted onto charged slides (Thermo Fisher Scientific). Slides were dried at room temperature and stored at −20° C. until ready for immunohistology. For immunofluorescence staining, the tissue sections were outlined with a hydrophobic pen (Vector Laboratories) and washed with TBS containing 0.1% Tween-20 (v/v). Non-specific binding was blocked using a solution containing 10% donkey serum (v/v), 0.5% Triton X-100 (v/v), 1% BSA (w/v), 0.1% gelatin (w/v), and 22.52 mg/ml glycine in TBST for 1 hour at room temperature. […]
GBOs were imaged on a Zeiss LSM 710 confocal microscope (Zeiss) using a 20× objective with Zen 2 software (Zeiss). Images were quantified and analyzed using ImageJ software. […]

[9] = tested on: T4213 orthotopic tumor; assay: Orthotopic tumor implantation and treatment with Quisinostat; format: in vivo, athymic nude mice
From the text: T4213 cells were stably modified using a lentiviral vector containing GFP and Luciferase (Biosettia, San Diego, CA). Cells were resuspended in serum free media, and then 3.0×10^5 cells were stereotactically injected into the right striatum of five-week female athymic nude mice (Charles River Labs). Tumor bioluminescence was quantified on the IVIS spectrum (PerkinElmer, Hopkinton, MA) following intraperitoneal administration of D-Luciferin (Goldbio, St Louis MO) two days following cell implantation. In a separate experiment, mice underwent serial bioluminescent imaging following orthotopic T4213 implantation. Mice were assigned to different treatment groups such that the total flux (photons/s) was equivalent between groups (6.4×10^6 photons/s). Treatment was initiated immediately following bioluminescent imaging, and consisted of once daily intraperitoneal administration of 2-Hydroxypropyl-β-cyclodextrin (vehicle, Cayman Chemical, Ann Arbor MI) or 10 mg/kg Quisinostat (Cayman Chemical) for a total of eight doses (FIG. 5A). […] Bioluminescent imaging was repeated seventy-two hours after the last treatment was administered. […] Serial bioluminescence was assessed using a one-way repeated measures ANOVA followed by a post-hoc Tukey test. Post-treatment total flux was background corrected, and the percent change in total flux was analyzed using a Mann-Whitney U test. […]

Compound | bioluminescent signal in cell-based death receptor assay [1] | IC50 [2] | IC50 [3] | loading efficiency in Se-PCPP hydrogel [4] | other results
CCS(=O)(=O)Nc1ccc(Oc2ccc(F)cc2F)c(-c2cn(C)c(=O)c3[nH]ccc23)c1 [ABBV-075] | greater than our positive control Tunicamycin |  |  |  | 
COc1ccc(-c2nc(N3CCOCC3)c3sc(CN(C)c4ncc(C(=O)NO)cn4)cc3n2)cn1 [CUDC-907] | greater than our positive control Tunicamycin | single digit nanomolar | single digit nanomolar |  | 
O=C(/C=C/c1ccc(CN(CCO)CCc2c[nH]c3ccccc23)cc1)NO [Dacinostat] | greater than our positive control Tunicamycin |  |  |  | 
FITC-BSA |  |  |  | 91% | delivery profile from Se-PCPP hydrogel [5]: slower than both quisinostat and doxorubicin
COc1cccc2c1C(=O)c1c(O)c3c(c(O)c1C2=O)C[C@@](O)(C(=O)CO)C[C@@H]3O[C@H]1C[C@H](N)[C@H](O)[C@H](C)O1 [doxorubicin] |  |  |  | 74% | 
Cn1cc(CNCC2CCN(c3ncc(C(=O)NO)cn3)CC2)c2ccccc21 [Quisinostat] | greater than our positive control Tunicamycin | single digit nanomolar | single digit nanomolar | 81% | therapeutic window (ratio of IC50s between NHA and NS039) ([2]; normal human astrocytes vs NS039): favorable therapeutic window; therapeutic window (ratio of IC50s between NHA and T4213) ([3]; normal human astrocytes vs T4213): favorable therapeutic window; CHOP dependent DR5 expression [6]: at nanomolar concentrations; cell morphology, sphere formation and integrity ([7]; Hoechst staining): shrunken and fragmented cell morphology; neurosphere formation ([7]; twelve days, control 120-130 neurospheres per well, p<0.05): 4-27 neurospheres per well; Caspase staining ([8]; five distinct GBO lines): increased; Ki67 staining ([8]; five distinct GBO lines): decreased; organoid size ([8]; seven days): noticeably shrink; tumor bioluminescence ([9]; 10 mg/kg once daily intraperitoneal with breaks, seventy-two hours after last treatment): significant reduction; mouse body weight ([9]; systemic administration): reduction of mouse body weight
